Patent US12371428B2 (Exelixis, Inc., priority 2019, dated 2025)
Read-outs that look alike come from different tables or passages of the source.

What was measured:
Format in all cases: cell-based
[1] = biological target: Met (phospho-Met, HGF-stimulated PC-3 prostate cancer cells) (Homo sapiens (Human), UniProt P08581); test: Met autophosphorylation ELISA in PC-3 cells (Example F); settings: cellular activity, read-out: c-Met IC50
Method: PC-3 prostate cancer cells (ATCC #CRL-1435) were seeded at 4×10^4 cells/well onto 24-well plates (Greiner #662165), in DMEM (Thermo Fisher #11995-040) containing 10% FBS (Thermo Fisher #26140-079), 1% MEM NEAA (Thermo Fisher #11140-050), 1% GlutaMax (Thermo Fisher #35050-061), and 1% Penicillin Streptomycin (Thermo Fisher #15140-122). PC-3 cells were incubated at 37° C., 5% CO2 for 24 h and then starved for 3 h in serum-free medium. Test compounds were serially diluted to produce an 8-point dose curve in fresh serum-free medium to a final concentration of 0.3% DMSO (vehicle) and added to the cells and incubated for 1 h. Cells were then stimulated with 100 ng/mL recombinant human HGF (R&D Systems #294-HG-250) for 10 min, washed with cold PBS, and immediately lysed with […] of cold 1× lysis buffer [20 mM Tris, 137 mM sodium chloride, 2 mM EDTA, 10% glycerol, 1% NP-40 alternative, 1 mM activated sodium orthovanadate, 1 mM PefaBloc SC (Sigma-Aldrich #11429868001), protease/phosphatase inhibitor tablet (Thermo Fisher #A32959)]. Lysates were clarified by centrifugation and 100 μL/well added into the PathScan phospho-Met (panTyr) Sandwich ELISA (Cell Signaling Technology #7333). Assay was performed according to manufacturer's instructions. Positive control wells (100% activity) contained HGF-stimulated, DMSO-treated cell lysates. Negative control wells (0% activity) contained HGF-stimulated, reference inhibitor-treated cell lysates. IC50 values were calculated by nonlinear regression analysis using a 4-parameter logistic curve fit in ActivityBase XE (IDBS).

[2] = biological target: KDR (phospho-KDR, VEGF165-stimulated HUVEC cells) (Homo sapiens (Human), UniProt P35968); test: KDR autophosphorylation ELISA in HUVEC cells (Example G); settings: cellular activity
Method: Human umbilical vein endothelial cells or HUVEC (Lonza #C2519A) were seeded at 2×10^4 cells/well onto 96-well plates (Corning #3904), in EGM-2 growth medium (Lonza #CC-3162) containing 1% Penicillin Streptomycin (Thermo Fisher #15140-122). HUVEC cells were incubated at 37° C., 5% CO2 for 24 h and then starved for 24 h in serum-free EBM-2 basal medium (Lonza #CC-3156) containing 1% Penicillin Streptomycin. Test compounds were serially diluted to produce an 8-point dose curve in fresh serum-free medium to a final concentration of 0.3% DMSO (vehicle) and added to the cells and incubated for 1 h. Cells were then stimulated with 100 ng/mL recombinant human VEGF165 (R&D Systems #293-VE-500) for 5 min, washed with cold PBS, and immediately lysed with […] of cold 1× lysis buffer [20 mM Tris, 137 mM sodium chloride, 2 mM EDTA, 10% glycerol, 1% NP-40 alternative, 1 mM activated sodium orthovanadate, 1 mM PefaBloc SC (Sigma-Aldrich #11429868001), protease/phosphatase inhibitor tablet (Thermo Fisher #A32959)]. Lysates were collected and 100 μL/well added into the human phospho-KDR DuoSet IC ELISA (R&D Systems #DYC1766-2). Assay was performed according to manufacturer's instructions and sample phospho-KDR concentrations were extrapolated using human phospho-KDR control (R&D Systems #841421) as a standard. Positive control wells (100% activity) contained VEGF165-stimulated, DMSO-treated cell lysates. Negative control wells (0% activity) contained non-stimulated cell lysates. IC50 values were calculated by nonlinear regression analysis using a 4-parameter logistic curve fit in ActivityBase XE (IDBS).

[3] = biological target: Mer (phospho-Mer, MERTK-transfected 293A cells) (Homo sapiens (Human), UniProt Q12866); test: Mer autophosphorylation ELISA in transient transfected 293A cells (Example H); settings: cellular activity
Method: 293A cells (Thermo Fisher #R70507) were seeded at 1.5×10^6 cells/well onto 100 mm dish (Greiner #664169), in DMEM (Thermo Fisher #11995-040) containing 10% FBS (Thermo Fisher #26140-079), 1% MEM NEAA (Thermo Fisher #11140-050), 1% GlutaMax (Thermo Fisher #35050-061), and 1% Penicillin Streptomycin (Thermo Fisher #15140-122). 293A cells were incubated at 37° C., 5% CO2 for 24 h and then transfected with […] MERTK DNA (Genecopoeia #EX-Z8208-M02) using TransIT LT1 transfection reagent (Mirus-Bio #MIR2305). After 24 h incubation, the transfected 293A cells were seeded at 1×10^5 cells/well onto 96-well plates (Corning #3904) in DMEM growth medium overnight. Test compounds were serially diluted to produce an 8-point dose curve in fresh serum-free medium to a final concentration of 0.3% DMSO (vehicle) and added to the cells and incubated for 1 h. Cells were then immediately lysed with 150 μL of cold 1× lysis buffer [20 mM Tris, 137 mM sodium chloride, 2 mM EDTA, 10% glycerol, 1% NP-40 alternative, 1 mM activated sodium orthovanadate, 1 mM PefaBloc SC (Sigma-Aldrich #11429868001), protease/phosphatase inhibitor tablet (Thermo Fisher #A32959)]. Lysates were clarified by centrifugation and 50 µL/well added in to the human phospho-Mer DuoSet IC ELISA (R&D Systems #DYC2579-2). Assay was performed according to manufacturer's instructions and sample phospho-Mer concentrations were extrapolated using human phospho-Mer control (R&D Systems #841793) as a standard. Positive control wells (100% activity) contained DMSO-treated cell lysates. Negative control wells (0% activity) contained reference inhibitor-treated cell lysates. IC50 values were calculated by nonlinear regression analysis using a 4-parameter logistic curve fit in ActivityBase XE (JDBS).

[4] = Met autophosphorylation ELISA in PC-3 cells
[5] = KDR autophosphorylation ELISA in HUVEC cells
[6] = Mer autophosphorylation ELISA in transient transfected 293A cells

Chain of Met (phospho-Met, HGF-stimulated PC-3 prostate cancer cells) (P08581 25-1390): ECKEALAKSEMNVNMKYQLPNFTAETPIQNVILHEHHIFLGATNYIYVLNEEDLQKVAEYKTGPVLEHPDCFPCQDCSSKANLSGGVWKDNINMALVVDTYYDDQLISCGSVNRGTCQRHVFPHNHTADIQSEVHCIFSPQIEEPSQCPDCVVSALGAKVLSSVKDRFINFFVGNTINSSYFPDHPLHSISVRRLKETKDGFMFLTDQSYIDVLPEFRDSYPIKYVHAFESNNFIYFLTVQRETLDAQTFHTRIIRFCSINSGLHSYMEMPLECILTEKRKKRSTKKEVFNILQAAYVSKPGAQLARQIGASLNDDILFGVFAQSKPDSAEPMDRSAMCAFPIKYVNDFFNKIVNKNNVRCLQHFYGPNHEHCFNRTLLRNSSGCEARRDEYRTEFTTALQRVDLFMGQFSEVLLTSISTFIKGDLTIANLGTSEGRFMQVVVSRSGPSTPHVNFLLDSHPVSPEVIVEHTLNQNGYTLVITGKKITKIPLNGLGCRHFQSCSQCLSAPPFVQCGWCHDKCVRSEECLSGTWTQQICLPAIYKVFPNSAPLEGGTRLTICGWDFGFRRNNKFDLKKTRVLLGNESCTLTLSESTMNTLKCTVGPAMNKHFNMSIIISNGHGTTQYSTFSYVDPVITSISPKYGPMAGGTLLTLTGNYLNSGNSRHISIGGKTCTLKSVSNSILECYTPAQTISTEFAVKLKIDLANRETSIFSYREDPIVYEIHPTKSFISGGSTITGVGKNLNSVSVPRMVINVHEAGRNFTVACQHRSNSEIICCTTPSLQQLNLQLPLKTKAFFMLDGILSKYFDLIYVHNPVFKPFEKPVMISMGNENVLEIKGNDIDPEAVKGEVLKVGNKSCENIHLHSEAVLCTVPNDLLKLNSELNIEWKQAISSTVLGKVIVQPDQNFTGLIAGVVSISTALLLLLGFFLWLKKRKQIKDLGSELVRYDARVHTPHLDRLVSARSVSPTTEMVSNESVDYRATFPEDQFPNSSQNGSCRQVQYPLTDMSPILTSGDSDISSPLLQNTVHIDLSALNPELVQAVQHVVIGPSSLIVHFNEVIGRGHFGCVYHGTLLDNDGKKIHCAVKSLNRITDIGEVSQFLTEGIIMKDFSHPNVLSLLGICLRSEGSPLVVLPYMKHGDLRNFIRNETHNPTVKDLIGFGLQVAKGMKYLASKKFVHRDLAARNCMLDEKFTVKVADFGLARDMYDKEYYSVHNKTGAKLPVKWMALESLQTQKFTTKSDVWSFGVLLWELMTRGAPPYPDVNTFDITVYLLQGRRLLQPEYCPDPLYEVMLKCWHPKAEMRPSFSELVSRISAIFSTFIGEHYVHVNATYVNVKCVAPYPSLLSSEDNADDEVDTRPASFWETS
Chain of Mer (phospho-Mer, MERTK-transfected 293A cells) (Q12866 21-999): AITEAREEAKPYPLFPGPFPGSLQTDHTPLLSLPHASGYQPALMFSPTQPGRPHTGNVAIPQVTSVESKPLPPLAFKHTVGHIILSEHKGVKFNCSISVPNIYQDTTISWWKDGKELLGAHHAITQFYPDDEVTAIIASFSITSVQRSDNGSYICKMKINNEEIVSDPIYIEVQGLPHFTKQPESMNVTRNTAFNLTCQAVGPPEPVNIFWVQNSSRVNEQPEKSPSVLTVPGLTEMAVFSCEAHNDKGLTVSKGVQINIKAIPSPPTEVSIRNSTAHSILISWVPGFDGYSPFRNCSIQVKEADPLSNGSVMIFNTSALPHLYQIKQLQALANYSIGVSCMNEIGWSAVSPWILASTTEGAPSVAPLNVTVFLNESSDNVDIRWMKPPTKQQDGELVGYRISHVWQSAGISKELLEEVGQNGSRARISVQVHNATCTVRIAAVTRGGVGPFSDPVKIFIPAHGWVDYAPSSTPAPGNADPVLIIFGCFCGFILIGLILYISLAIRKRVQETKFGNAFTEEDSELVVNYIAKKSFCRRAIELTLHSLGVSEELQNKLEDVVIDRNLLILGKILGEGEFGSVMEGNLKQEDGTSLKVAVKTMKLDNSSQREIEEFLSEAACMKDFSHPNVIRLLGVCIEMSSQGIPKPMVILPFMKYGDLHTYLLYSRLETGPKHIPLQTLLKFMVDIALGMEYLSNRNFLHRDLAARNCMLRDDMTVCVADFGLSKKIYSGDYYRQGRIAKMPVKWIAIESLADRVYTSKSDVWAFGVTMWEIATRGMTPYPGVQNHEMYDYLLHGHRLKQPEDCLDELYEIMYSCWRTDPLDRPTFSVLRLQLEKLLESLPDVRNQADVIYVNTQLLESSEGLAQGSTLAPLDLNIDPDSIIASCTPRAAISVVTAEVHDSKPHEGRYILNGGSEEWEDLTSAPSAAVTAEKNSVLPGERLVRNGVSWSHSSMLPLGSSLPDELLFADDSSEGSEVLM
Chain of KDR (phospho-KDR, VEGF165-stimulated HUVEC cells) (P35968 20-1356): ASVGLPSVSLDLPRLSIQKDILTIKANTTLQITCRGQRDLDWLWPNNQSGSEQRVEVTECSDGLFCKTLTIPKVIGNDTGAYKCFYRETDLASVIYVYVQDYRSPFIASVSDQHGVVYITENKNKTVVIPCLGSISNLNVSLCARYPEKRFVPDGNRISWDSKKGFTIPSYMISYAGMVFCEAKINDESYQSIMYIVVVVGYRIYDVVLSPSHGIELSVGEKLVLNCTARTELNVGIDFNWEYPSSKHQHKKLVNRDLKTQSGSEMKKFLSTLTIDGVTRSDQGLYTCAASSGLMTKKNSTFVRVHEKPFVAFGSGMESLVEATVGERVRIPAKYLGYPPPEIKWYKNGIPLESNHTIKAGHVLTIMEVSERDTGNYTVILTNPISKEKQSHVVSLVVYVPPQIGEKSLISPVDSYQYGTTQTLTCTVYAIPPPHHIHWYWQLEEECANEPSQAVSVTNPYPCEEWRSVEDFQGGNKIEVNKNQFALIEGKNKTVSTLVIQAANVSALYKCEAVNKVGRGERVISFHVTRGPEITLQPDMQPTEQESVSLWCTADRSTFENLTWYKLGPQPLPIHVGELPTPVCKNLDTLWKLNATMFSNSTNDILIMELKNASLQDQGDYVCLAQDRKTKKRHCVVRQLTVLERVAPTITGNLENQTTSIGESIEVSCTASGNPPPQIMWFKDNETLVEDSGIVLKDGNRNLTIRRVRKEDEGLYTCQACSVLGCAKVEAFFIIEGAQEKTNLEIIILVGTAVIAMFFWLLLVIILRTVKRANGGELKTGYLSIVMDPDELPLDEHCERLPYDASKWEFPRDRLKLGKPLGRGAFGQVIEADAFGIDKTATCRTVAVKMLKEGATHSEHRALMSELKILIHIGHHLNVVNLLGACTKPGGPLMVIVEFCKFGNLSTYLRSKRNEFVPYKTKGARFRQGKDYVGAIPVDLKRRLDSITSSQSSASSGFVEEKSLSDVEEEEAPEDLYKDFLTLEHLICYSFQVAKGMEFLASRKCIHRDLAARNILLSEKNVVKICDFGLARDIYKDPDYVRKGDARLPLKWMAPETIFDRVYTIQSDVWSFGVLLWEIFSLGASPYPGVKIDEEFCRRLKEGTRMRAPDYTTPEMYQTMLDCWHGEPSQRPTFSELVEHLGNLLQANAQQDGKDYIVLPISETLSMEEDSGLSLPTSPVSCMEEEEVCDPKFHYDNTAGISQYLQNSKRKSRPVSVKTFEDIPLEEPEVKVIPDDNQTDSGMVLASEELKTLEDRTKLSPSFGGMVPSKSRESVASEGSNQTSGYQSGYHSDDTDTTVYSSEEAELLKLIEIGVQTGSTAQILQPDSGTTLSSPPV

Row | IC50 [1, 4] [nM] | IC50 [2, 5] [nM] | IC50 [3, 6] [nM] | IC50 ([1]; PC-3 cells) [nM] | IC50 ([2]; HUVEC cells) [nM] | IC50 ([3]; transfected 293A cells) [nM] | Structure (SMILES)
1 | < 100 | 100 to 300 | < 100 |  |  |  | COc1cc2nccc(Oc3ccc(NC(=O)c4c(C)n(CC(F)F)cc(-c5ccc(F)cc5)c4=O)cc3)c2nc1OC [Compound 788, 1-(2,2-difluoroethyl)-N-[4-[(6,7-dimethoxy-1,5-naphthyridin-4-yl)oxy]phenyl]-5-(4-fluorophenyl)-2-methyl-4-oxopyridine-3-carboxamide]
2 | < 100 | < 100 | < 100 |  |  |  | CCOc1ccn(-c2ccc(F)cc2)c(=O)c1C(=O)Nc1ccc(Oc2ccnc3cc(OC)c(OC)nc23)c(F)c1 [Compound 715, N-[4-[(6,7-dimethoxy-1,5-naphthyridin-4-yl)oxy]-3-fluorophenyl]-4-ethoxy-1-(4-fluorophenyl)-2-oxopyridine-3-carboxamide]
3 | < 100 |  | < 100 |  |  |  | COc1cc2c(Oc3ccc(NC(=O)c4nc(C)c(C)n(-c5ccc(F)cc5)c4=O)cc3F)ccnc2cn1 [Compound 714, N-[3-fluoro-4-[(6-methoxy-1,7-naphthyridin-4-yl)oxy]phenyl]-4-(4-fluorophenyl)-5,6-dimethyl-3-oxopyrazine-2-carboxamide]
4 |  |  |  | < 100 | > 300 | < 100 | COc1cnc2c(Oc3ccc(NC(=O)c4c(C)n(C)c(C)c(-c5ccc(F)c(C)c5)c4=O)cc3F)ccnc2c1 [Compound 819, N-[3-fluoro-4-[(7-methoxy-1,5-naphthyridin-4-yl)oxy]phenyl]-5-(4-fluoro-3-methylphenyl)-1,2,6-trimethyl-4-oxopyridine-3-carboxamide]
5 | < 100 | > 300 | < 100 |  |  |  | CCOc1ccn(-c2ccc(F)cc2)c(=O)c1C(=O)Nc1ccc(Oc2ccnc3cc(OC)cnc23)cc1 [Compound 717, 4-ethoxy-1-(4-fluorophenyl)-N-[4-[(7-methoxy-1,5-naphthyridin-4-yl)oxy]phenyl]-2-oxopyridine-3-carboxamide]
6 | < 100 | < 100 | < 100 |  |  |  | COc1cc2nccc(Oc3ccc(NC(=O)c4c5n(c(C)c(-c6ccc(F)cc6)c4=O)CCOC5)cc3F)c2nc1OC [Compound 775, N-[4-[(6,7-dimethoxy-1,5-naphthyridin-4-yl)oxy]-3-fluorophenyl]-7-(4-fluorophenyl)-6-methyl-8-oxo-3,4-dihydro-1H-pyrido[2,1-c][1,4]oxazine-9-carboxamide]
7 |  |  |  | < 100 | > 300 | < 100 | COc1cc2nccc(Oc3ccc(NC(=O)c4c(C)n(C)c(C)c(-c5ccc(F)c(F)c5)c4=O)cc3F)c2nc1OC [Compound 822, 5-(3,4-difluorophenyl)-N-[4-[(6,7-dimethoxy-1,5-naphthyridin-4-yl)oxy]-3-fluorophenyl]-1,2,6-trimethyl-4-oxopyridine-3-carboxamide]
8 | < 100 | > 300 | < 100 |  |  |  | COc1cc2nccc(Oc3ccc(NC(=O)c4cc(C(C)=O)c(C)n(-c5ccc(F)cc5C)c4=O)cc3F)c2nc1OC [Compound 720, 5-acetyl-N-[4-[(6,7-dimethoxy-1,5-naphthyridin-4-yl)oxy]-3-fluorophenyl]-1-(4-fluoro-2-methylphenyl)-6-methyl-2-oxopyridine-3-carboxamide]
9 | < 100 | > 300 | < 100 |  |  |  | COc1cc2nccc(Oc3ccc(NC(=O)c4cnc(C)c(-c5ccc(F)cc5)n4)cc3F)c2nc1OC [Compound 764, N-[4-[(6,7-dimethoxy-1,5-naphthyridin-4-yl)oxy]-3-fluorophenyl]-6-(4-fluorophenyl)-5-methylpyrazine-2-carboxamide]
10 | < 100 | > 300 | < 100 |  |  |  | COc1cnc2c(Oc3ccc(NC(=O)c4cnc(C)c(-c5ccc(C(C)C)cc5)c4O)cc3F)ccnc2c1 [Compound 705, N-[3-fluoro-4-[(7-methoxy-1,5-naphthyridin-4-yl)oxy]phenyl]-4-hydroxy-6-methyl-5-(4-propan-2-ylphenyl)pyridine-3-carboxamide]
11 |  |  |  | < 100 | > 300 | < 100 | COc1cnc2c(Oc3ccc(NC(=O)c4c(C)n(C)c(C)c(-c5ccc(F)cc5F)c4=O)cc3F)ccnc2c1 [Compound 824, 5-(2,4-difluorophenyl)-N-[3-fluoro-4-[(7-methoxy-1,5-naphthyridin-4-yl)oxy]phenyl]-1,2,6-trimethyl-4-oxopyridine-3-carboxamide]
12 | < 100 | 100 to 300 | < 100 |  |  |  | CCOc1ccn(-c2ccc(F)cc2)c(=O)c1C(=O)Nc1ccc(Oc2ccnc3cc(OC)c(OC)nc23)cc1 [Compound 718, N-[4-[(6,7-dimethoxy-1,5-naphthyridin-4-yl)oxy]phenyl]-4-ethoxy-1-(4-fluorophenyl)-2-oxopyridine-3-carboxamide]
13 | < 100 | < 100 | < 100 |  |  |  | COCc1nc(C)c(-c2ccc(F)cc2F)c(O)c1C(=O)Nc1cc(F)c(Oc2ccnc3cc(OC)c(OC)nc23)cc1F [Compound 778, 5-(2,4-difluorophenyl)-N-[4-[(6,7-dimethoxy-1,5-naphthyridin-4-yl)oxy]-2,5-difluorophenyl]-4-hydroxy-2-(methoxymethyl)-6-methylpyridine-3-carboxamide]
14 | < 100 |  | < 100 |  |  |  | COc1ccc(-c2c(C)nc(C)c(C(=O)Nc3ccc(Oc4ccnc5cc(OC)c(OC)nc45)c(F)c3)c2O)c(OC)c1 [Compound 713, N-[4-[(6,7-dimethoxy-1,5-naphthyridin-4-yl)oxy]-3-fluorophenyl]-5-(2,4-dimethoxyphenyl)-4-hydroxy-2,6-dimethylpyridine-3-carboxamide]
15 |  |  |  | < 100 |  | < 100 | COc1cc2nccc(Oc3ccc(NC(=O)c4c(C)n(CC(F)(F)F)cc(-c5ccc(F)cc5C)c4=O)cc3F)c2nc1OC [Compound 802, N-[4-[(6,7-dimethoxy-1,5-naphthyridin-4-yl)oxy]-3-fluorophenyl]-5-(4-fluoro-2-methylphenyl)-2-methyl-4-oxo-1 (2,2,2-trifluoroethyl)pyridine-3-carboxamide]
